Consider 17 molecules from patent US8906904B2, “Alkoxy pyrazoles as soluble guanylate cyclase activators” (Boehringer Ingelheim International GmbH, priority 2012, dated 2014).

Tested on in one series: not listed separately
Kind of series: human liver microsome (HLM) metabolic stability assay. The format is in vitro ADME. The settings on record: human liver microsomes; % hepatic blood flow calculated from t1/2. The gist of the method: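 Compounds at 1 uM incubated with human liver microsomes plus NADPH at 37° C., sampled at 0, 5, 15, 30 and 60 min into cold acetonitrile and quantified by LC/MS/MS. t½ from the slope of ln % remaining vs time; CLint, CLh and % Qh derived from it (n=1).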
In the case of `COc1c(C(=O)O)cnn1-c1cccc(-c2cccc(C)c2OCc2cc(F)c3c(c2)CCN(C2CCOCC2)C3)n1` [Compound 201], the “HLM (% Qh)” value is given as below 24 % Qh.

In the case of `COc1c(C(=O)O)cnn1-c1cccc(-c2cccc(C)c2OCc2ccc3c(c2C)CCN(C[C@H]2COCCO2)CC3)n1` [Compound 203], the “HLM (% Qh)” value was below 24 % Qh.

As to `COc1c(C(=O)O)cnn1-c1cccc(-c2cccc(C)c2OCc2ccc3c(c2C)CCN(C[C@@H]2COCCO2)CC3)n1` [Compound 204], the “HLM (% Qh)” value is given as below 24 % Qh.

Turning to `COc1c(C(=O)O)cnn1-c1cccc(-c2cccc(C)c2OCc2ccc3c(c2C)CCN([C@@H]2CCOC2)CC3)n1` [Compound 207], the “HLM (% Qh)” value is below 24 % Qh.

On to `CCOc1c(C(=O)O)cnn1-c1cccc(-c2cccc(C)c2OCc2ccc3c(c2C)CCN(CC2(F)COC2)C3)n1` [Compound 208], for which the “HLM (% Qh)” value is listed as below 24 % Qh.

Turning to `COc1c(C(=O)O)cnn1-c1cccc(-c2ccccc2OCc2ccc3c(c2)CCN(C2CCOCC2)C3)n1` [Compound 209], the “HLM (% Qh)” value is given as below 24 % Qh.

As to `CCOc1c(C(=O)O)cnn1-c1cccc(-c2cccc(C)c2OCc2cc(C)c3c(c2)CCN(C(C)COC)C3)n1` (stereo not shown) [Compound 210], the “HLM (% Qh)” value is listed as below 24 % Qh.

As to `CCOc1c(C(=O)O)cnn1-c1cccc(-c2cccc(C)c2OCc2ccc3c(c2C)CCN(C[C@@H]2COCCO2)CC3)n1` [Compound 211], the “HLM (% Qh)” value is given as below 24 % Qh.

As to `CCOc1c(C(=O)O)cnn1-c1cccc(-c2cccc(C)c2OCc2ccc3c(c2C)CCN(C[C@H]2COCCO2)CC3)n1` [Compound 212], the “HLM (% Qh)” value is below 24 % Qh.

`CCOc1c(C(=O)O)cnn1-c1cccc(-c2cccc(C)c2OCc2ccc3c(c2)CCN(C2COC2)CC3)n1` [Compound 213]: the “HLM (% Qh)” value is listed as below 24 % Qh.

Consider `CCOc1c(C(=O)O)cnn1-c1cccc(-c2cccc(C)c2OCc2ccc3c(c2C)CCN(C[C@H]2CCCCO2)CC3)n1` [Compound 214], for which the “HLM (% Qh)” value is on record as below 24 % Qh.

For `CCOc1c(C(=O)O)cnn1-c1cccc(-c2cccc(C)c2OCc2ccc3c(c2C)CCN(C[C@@H]2CCCCO2)CC3)n1` [Compound 215], the “HLM (% Qh)” value was below 24 % Qh.

Regarding `COc1c(C(=O)O)cnn1-c1cccc(-c2cccc(C)c2OCc2ccc3c(c2)C(C)(C)CN(C2CCOC2)C3)n1` (stereo not shown) [Compound 217], the “HLM (% Qh)” value is 89 % Qh.

Regarding `COc1c(C(=O)O)cnn1-c1cccc(-c2cccc(C)c2OCc2ccc3c(c2)C(C)(C)CN(C2CCCOC2)C3)n1` (stereo not shown) [Compound 218], the “HLM (% Qh)” value is recorded as 89 % Qh.

With `COc1c(C(=O)O)cnn1-c1cccc(-c2cccc(C)c2OCc2ccc3c(c2)C(C)(C)CN(CC2COCCO2)C3)n1` (stereo not shown) [Compound 219], the “HLM (% Qh)” value is listed as 89 % Qh.

Turning to `CCOc1c(C(=O)O)cnn1-c1cccc(-c2cccc(C)c2OCc2ccc3c(c2OC)CCN(C2CCOCC2)C3)n1` [Compound 220], the “HLM (% Qh)” value is reported as below 24 % Qh.

Regarding `CCOc1c(C(=O)O)cnn1-c1cccc(-c2cccc(C)c2OCc2ccc3c(c2OC)CCN(C2COC2)C3)n1` [Compound 221], the “HLM (% Qh)” value is given as below 24 % Qh.

For the next series, the target named is T1, human soluble guanylate cyclase alpha 1 and beta 1 subunits (sGC) (Homo sapiens, UniProt Q02108+Q02153).
T1 construct: expressed in transfected cells; host or cells: Chinese hamster ovary (CHO) cells, stably transfected
T1 sequence (Q02108 1-690): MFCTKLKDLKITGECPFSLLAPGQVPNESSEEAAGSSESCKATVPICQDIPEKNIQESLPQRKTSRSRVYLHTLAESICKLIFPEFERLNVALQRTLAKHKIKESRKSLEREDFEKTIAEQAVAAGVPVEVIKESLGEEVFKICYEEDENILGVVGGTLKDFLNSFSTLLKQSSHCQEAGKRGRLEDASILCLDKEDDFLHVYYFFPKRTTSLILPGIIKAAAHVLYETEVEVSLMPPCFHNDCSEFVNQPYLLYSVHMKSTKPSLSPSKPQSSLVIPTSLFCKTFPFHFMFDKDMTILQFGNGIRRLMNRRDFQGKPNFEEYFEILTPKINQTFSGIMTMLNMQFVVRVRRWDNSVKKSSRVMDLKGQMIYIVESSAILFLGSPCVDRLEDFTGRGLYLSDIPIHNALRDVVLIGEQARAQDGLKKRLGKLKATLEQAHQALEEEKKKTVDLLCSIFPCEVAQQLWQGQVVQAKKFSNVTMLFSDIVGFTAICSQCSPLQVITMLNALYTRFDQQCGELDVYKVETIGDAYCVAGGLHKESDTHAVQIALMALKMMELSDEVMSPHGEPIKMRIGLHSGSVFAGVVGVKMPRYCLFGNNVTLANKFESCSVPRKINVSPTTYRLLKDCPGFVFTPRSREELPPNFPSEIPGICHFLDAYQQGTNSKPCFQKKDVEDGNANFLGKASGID
T1 sequence (Q02153 1-619): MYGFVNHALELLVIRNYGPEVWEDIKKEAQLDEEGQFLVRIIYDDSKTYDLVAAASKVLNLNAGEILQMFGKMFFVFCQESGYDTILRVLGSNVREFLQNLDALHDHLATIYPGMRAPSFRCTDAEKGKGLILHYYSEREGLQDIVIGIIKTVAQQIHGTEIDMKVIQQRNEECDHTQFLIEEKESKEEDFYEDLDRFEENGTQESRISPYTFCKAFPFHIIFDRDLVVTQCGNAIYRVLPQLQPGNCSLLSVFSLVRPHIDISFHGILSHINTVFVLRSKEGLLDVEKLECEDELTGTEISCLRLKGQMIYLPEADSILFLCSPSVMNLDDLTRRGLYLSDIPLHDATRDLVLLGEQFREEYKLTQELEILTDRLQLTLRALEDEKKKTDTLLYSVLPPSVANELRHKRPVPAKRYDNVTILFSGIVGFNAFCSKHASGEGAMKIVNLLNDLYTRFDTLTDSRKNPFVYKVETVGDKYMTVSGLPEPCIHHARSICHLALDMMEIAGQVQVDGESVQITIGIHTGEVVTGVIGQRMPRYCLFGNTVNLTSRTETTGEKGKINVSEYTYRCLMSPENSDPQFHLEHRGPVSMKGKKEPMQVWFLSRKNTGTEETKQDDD
The series is described as follows: sGC cellular activator assay (cGMP, HTRF). The format is cell-based. The settings on record: CHO cells stably expressing human sGC alpha 1/beta 1, preincubated with 40 microM ODQ; cGMP readout; assay run with and without 50% human serum, Table 2 does not say which. The gist of the method:
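First, CHO-sGC (human α1β1) cells get 1 h ODQ at 40 microM with IBMX and 0.1% BSA. Finally, cGMP is quantified by HTRF and EC50 computed.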
Molecule `COc1c(C(=O)O)cnn1-c1cccc(-c2cccc(C)c2OCc2cc(F)c3c(c2)CCN(C2CCOCC2)C3)n1` [Compound 201] gave an EC50 of 12 nM.

For the molecule `COc1c(C(=O)O)cnn1-c1cccc(-c2cccc(C)c2OCc2ccc3c(c2C)CCN(C[C@H]2COCCO2)CC3)n1` [Compound 203], the EC50 was 4.4 nM.

The molecule `COc1c(C(=O)O)cnn1-c1cccc(-c2cccc(C)c2OCc2ccc3c(c2C)CCN(C[C@@H]2COCCO2)CC3)n1` [Compound 204] gave an EC50 of 4.5 nM.

As to `COc1c(C(=O)O)cnn1-c1cccc(-c2cccc(C)c2OCc2ccc3c(c2C)CCN([C@@H]2CCOC2)CC3)n1` [Compound 207], the EC50 stood at 9.2 nM.

On to `CCOc1c(C(=O)O)cnn1-c1cccc(-c2cccc(C)c2OCc2ccc3c(c2C)CCN(CC2(F)COC2)C3)n1` [Compound 208], for which it took 20 nM to reach a half-maximal effect (EC50).

`COc1c(C(=O)O)cnn1-c1cccc(-c2ccccc2OCc2ccc3c(c2)CCN(C2CCOCC2)C3)n1` [Compound 209]: the midpoint of the response, the EC50, lay at 200 nM.

Molecule `CCOc1c(C(=O)O)cnn1-c1cccc(-c2cccc(C)c2OCc2cc(C)c3c(c2)CCN(C(C)COC)C3)n1` (stereo not shown) [Compound 210] came in with an EC50 of 19 nM.

`CCOc1c(C(=O)O)cnn1-c1cccc(-c2cccc(C)c2OCc2ccc3c(c2C)CCN(C[C@@H]2COCCO2)CC3)n1` [Compound 211] showed a concentration giving a half-maximal response (EC50) of 30 nM.

In the case of `CCOc1c(C(=O)O)cnn1-c1cccc(-c2cccc(C)c2OCc2ccc3c(c2C)CCN(C[C@H]2COCCO2)CC3)n1` [Compound 212], the midpoint of the response, the EC50, lay at 36 nM.

As for `CCOc1c(C(=O)O)cnn1-c1cccc(-c2cccc(C)c2OCc2ccc3c(c2)CCN(C2COC2)CC3)n1` [Compound 213], a half-maximal response (EC50) required 39 nM.

Molecule `CCOc1c(C(=O)O)cnn1-c1cccc(-c2cccc(C)c2OCc2ccc3c(c2C)CCN(C[C@H]2CCCCO2)CC3)n1` [Compound 214] showed an EC50 of 30 nM.

Regarding `CCOc1c(C(=O)O)cnn1-c1cccc(-c2cccc(C)c2OCc2ccc3c(c2C)CCN(C[C@@H]2CCCCO2)CC3)n1` [Compound 215], the EC50 came to 37 nM.

In the case of `COc1c(C(=O)O)cnn1-c1cccc(-c2cccc(C)c2OCc2ccc3c(c2)C(C)(C)CN(C2CCOC2)C3)n1` (stereo not shown) [Compound 217], the EC50 came out at 35 nM.

`COc1c(C(=O)O)cnn1-c1cccc(-c2cccc(C)c2OCc2ccc3c(c2)C(C)(C)CN(C2CCCOC2)C3)n1` (stereo not shown) [Compound 218] yielded an EC50 of 62 nM.

In the case of `COc1c(C(=O)O)cnn1-c1cccc(-c2cccc(C)c2OCc2ccc3c(c2)C(C)(C)CN(CC2COCCO2)C3)n1` (stereo not shown) [Compound 219], it took 140 nM to reach a half-maximal effect (EC50).

`CCOc1c(C(=O)O)cnn1-c1cccc(-c2cccc(C)c2OCc2ccc3c(c2OC)CCN(C2CCOCC2)C3)n1` [Compound 220] showed an EC50 of 150 nM.

In the case of `CCOc1c(C(=O)O)cnn1-c1cccc(-c2cccc(C)c2OCc2ccc3c(c2OC)CCN(C2COC2)C3)n1` [Compound 221], the EC50 stood at 210 nM.
